Test results from the supplement of paper PMC10307832.

Assays:
Experiment in all cases: relative viability (nuclei count vs DMSO), 5 days (fraction); higher = more cells survive
KN-93 = compound: CN(C/C=C/C1=CC=C(C=C1)Cl)CC2=CC=CC=C2N(CCO)S(=O)(=O)C3=CC=C(C=C3)OC [KN-93]
Procedure, shortened: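 Lung cancer cell lines in 1536-well plates were kept overnight at 37 °C, then pinned with five library-drug doses (not always all listed) spaced by √10 on vehicle-anchored plates. After 5 days without medium change, cells were fixed, permeabilised and Hoechst-stained in one step, imaged at 4×, and nuclei were counted with MetaXpress. Viability is treated-well nuclei divided by vehicle-well nuclei, taken as the median over plates. Plates passed only with control CV below 25% and at least one doubling.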

KN-93 + Crizotinib = compound: CN(C/C=C/C1=CC=C(C=C1)Cl)CC2=CC=CC=C2N(CCO)S(=O)(=O)C3=CC=C(C=C3)OC [KN-93] + C[C@@H](Oc1cc(-c2cnn(C3CCNCC3)c2)cnc1N)c1c(Cl)ccc(F)c1Cl [Crizotinib] (partner 1 µM)
Procedure, shortened: (§1)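 Medians of duplicate plates are given as relative viability. That measure is the nuclei count in treated wells divided by the count in vehicle wells. Counts were taken on 4× images of lung cancer cell lines in 1536-well plates, 5 days after pin-tool dosing the day after seeding with one drug alone or a fixed anchor-drug dose plus five library-drug doses (not always all listed) in √10 steps.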

KN-93 + Alpelisib = compound: CN(C/C=C/C1=CC=C(C=C1)Cl)CC2=CC=CC=C2N(CCO)S(=O)(=O)C3=CC=C(C=C3)OC [KN-93] + Cc1nc(NC(=O)N2CCC[C@H]2C(N)=O)sc1-c1ccnc(C(C)(C)C(F)(F)F)c1 [Alpelisib] (partner 2 µM)
Procedure, shortened: as §1

KN-93 + Dasatinib = compound: CN(C/C=C/C1=CC=C(C=C1)Cl)CC2=CC=CC=C2N(CCO)S(=O)(=O)C3=CC=C(C=C3)OC [KN-93] + Cc1nc(Nc2ncc(C(=O)Nc3c(C)cccc3Cl)s2)cc(N2CCN(CCO)CC2)n1 [Dasatinib] (partner 0.075 µM)
Procedure, shortened: as §1

KN-93 + Olaparib = compound: CN(C/C=C/C1=CC=C(C=C1)Cl)CC2=CC=CC=C2N(CCO)S(=O)(=O)C3=CC=C(C=C3)OC [KN-93] + O=C(c1cc(Cc2n[nH]c(=O)c3ccccc23)ccc1F)N1CCN(C(=O)C2CC2)CC1 [Olaparib] (partner 8 µM)
Procedure, shortened: as §1

NCI-H1651
relative viability (KN-93; 0.08 µM): 0.932
relative viability (KN-93; 0.253 µM): 1.07
relative viability (KN-93; 2.53 µM): 1.09
relative viability (KN-93; 8 µM): 0.865
relative viability (KN-93 + Crizotinib; first compound 0.08 µM): 0.846
relative viability (KN-93 + Crizotinib; first compound 0.253 µM): 0.959
relative viability (KN-93 + Crizotinib; first compound 2.53 µM): 0.9
relative viability (KN-93 + Crizotinib; first compound 8 µM): 0.732
relative viability (KN-93 + Alpelisib; first compound 0.08 µM): 1.05
relative viability (KN-93 + Alpelisib; first compound 0.253 µM): 1.23
relative viability (KN-93 + Alpelisib; first compound 2.53 µM): 1.3
relative viability (KN-93 + Alpelisib; first compound 8 µM): 0.624
relative viability (KN-93 + Dasatinib; first compound 0.08 µM): 0.491
relative viability (KN-93 + Dasatinib; first compound 0.253 µM): 0.461
relative viability (KN-93 + Dasatinib; first compound 2.53 µM): 0.626
relative viability (KN-93 + Dasatinib; first compound 8 µM): 0.246
relative viability (KN-93 + Olaparib; first compound 0.08 µM): 0.203
relative viability (KN-93 + Olaparib; first compound 0.253 µM): 0.178
relative viability (KN-93 + Olaparib; first compound 2.53 µM): 0.199
relative viability (KN-93 + Olaparib; first compound 8 µM): 0.179

NCI-H1666
relative viability (KN-93; 0.08 µM): 0.969
relative viability (KN-93; 0.253 µM): 0.921
relative viability (KN-93; 2.53 µM): 0.995
relative viability (KN-93; 8 µM): 0.875
relative viability (KN-93 + Crizotinib; first compound 0.08 µM): 0.939
relative viability (KN-93 + Crizotinib; first compound 0.253 µM): 0.837
relative viability (KN-93 + Crizotinib; first compound 2.53 µM): 0.998
relative viability (KN-93 + Crizotinib; first compound 8 µM): 0.626
relative viability (KN-93 + Alpelisib; first compound 0.08 µM): 0.974
relative viability (KN-93 + Alpelisib; first compound 0.253 µM): 0.895
relative viability (KN-93 + Alpelisib; first compound 2.53 µM): 1.22
relative viability (KN-93 + Alpelisib; first compound 8 µM): 0.674
relative viability (KN-93 + Dasatinib; first compound 0.08 µM): 0.842
relative viability (KN-93 + Dasatinib; first compound 0.253 µM): 0.924
relative viability (KN-93 + Dasatinib; first compound 2.53 µM): 0.889
relative viability (KN-93 + Dasatinib; first compound 8 µM): 0.645
relative viability (KN-93 + Olaparib; first compound 0.08 µM): 0.726
relative viability (KN-93 + Olaparib; first compound 0.253 µM): 0.716
relative viability (KN-93 + Olaparib; first compound 2.53 µM): 0.702
relative viability (KN-93 + Olaparib; first compound 8 µM): 0.762

NCI-H1734
relative viability (KN-93; 0.08 µM): 0.942
relative viability (KN-93; 0.253 µM): 1.15
relative viability (KN-93; 2.53 µM): 1.14
relative viability (KN-93; 8 µM): 0.668
relative viability (KN-93 + Crizotinib; first compound 0.08 µM): 0.646
relative viability (KN-93 + Crizotinib; first compound 0.253 µM): 0.752
relative viability (KN-93 + Crizotinib; first compound 2.53 µM): 0.74
relative viability (KN-93 + Crizotinib; first compound 8 µM): 0.421
relative viability (KN-93 + Alpelisib; first compound 0.08 µM): 0.718
relative viability (KN-93 + Alpelisib; first compound 0.253 µM): 0.712
relative viability (KN-93 + Alpelisib; first compound 2.53 µM): 0.746
relative viability (KN-93 + Alpelisib; first compound 8 µM): 0.533
relative viability (KN-93 + Dasatinib; first compound 0.08 µM): 0.478
relative viability (KN-93 + Dasatinib; first compound 0.253 µM): 0.544
relative viability (KN-93 + Dasatinib; first compound 2.53 µM): 0.577
relative viability (KN-93 + Dasatinib; first compound 8 µM): 0.358
relative viability (KN-93 + Olaparib; first compound 0.08 µM): 0.496
relative viability (KN-93 + Olaparib; first compound 0.253 µM): 0.677
relative viability (KN-93 + Olaparib; first compound 2.53 µM): 0.611
relative viability (KN-93 + Olaparib; first compound 8 µM): 0.518

NCI-H1755
relative viability (KN-93; 0.08 µM): 0.915
relative viability (KN-93; 0.253 µM): 1.03
relative viability (KN-93; 2.53 µM): 1.03
relative viability (KN-93; 8 µM): 0.758
relative viability (KN-93 + Crizotinib; first compound 0.08 µM): 0.86
relative viability (KN-93 + Crizotinib; first compound 0.253 µM): 1.14
relative viability (KN-93 + Crizotinib; first compound 2.53 µM): 0.903
relative viability (KN-93 + Crizotinib; first compound 8 µM): 0.566
relative viability (KN-93 + Alpelisib; first compound 0.08 µM): 0.718
relative viability (KN-93 + Alpelisib; first compound 0.253 µM): 1.13
relative viability (KN-93 + Alpelisib; first compound 2.53 µM): 1.2
relative viability (KN-93 + Alpelisib; first compound 8 µM): 0.819
relative viability (KN-93 + Dasatinib; first compound 0.08 µM): 0.392
relative viability (KN-93 + Dasatinib; first compound 0.253 µM): 0.407
relative viability (KN-93 + Dasatinib; first compound 2.53 µM): 0.384
relative viability (KN-93 + Dasatinib; first compound 8 µM): 0.255
relative viability (KN-93 + Olaparib; first compound 0.08 µM): 0.806
relative viability (KN-93 + Olaparib; first compound 0.253 µM): 0.804
relative viability (KN-93 + Olaparib; first compound 2.53 µM): 0.909
relative viability (KN-93 + Olaparib; first compound 8 µM): 0.827

NCI-H1792
relative viability (KN-93; 0.08 µM): 0.783
relative viability (KN-93; 0.253 µM): 0.83
relative viability (KN-93; 2.53 µM): 0.948
relative viability (KN-93; 8 µM): 0.703
relative viability (KN-93 + Crizotinib; first compound 0.253 µM): 1.1
relative viability (KN-93 + Crizotinib; first compound 2.53 µM): 0.976
relative viability (KN-93 + Crizotinib; first compound 8 µM): 0.914
relative viability (KN-93 + Alpelisib; first compound 0.253 µM): 0.759
relative viability (KN-93 + Alpelisib; first compound 2.53 µM): 0.735
relative viability (KN-93 + Alpelisib; first compound 8 µM): 0.458
relative viability (KN-93 + Dasatinib; first compound 0.08 µM): 0.651
relative viability (KN-93 + Dasatinib; first compound 0.253 µM): 0.681
relative viability (KN-93 + Dasatinib; first compound 2.53 µM): 0.973
relative viability (KN-93 + Dasatinib; first compound 8 µM): 0.633
relative viability (KN-93 + Olaparib; first compound 0.08 µM): 0.351
relative viability (KN-93 + Olaparib; first compound 0.253 µM): 0.312
relative viability (KN-93 + Olaparib; first compound 2.53 µM): 0.392
relative viability (KN-93 + Olaparib; first compound 8 µM): 0.311

NCI-H1915
relative viability (KN-93; 0.08 µM): 0.952
relative viability (KN-93; 0.253 µM): 1.24
relative viability (KN-93; 2.53 µM): 0.993
relative viability (KN-93; 8 µM): 0.947
relative viability (KN-93 + Crizotinib; first compound 0.08 µM): 0.705
relative viability (KN-93 + Crizotinib; first compound 0.253 µM): 1.35
relative viability (KN-93 + Crizotinib; first compound 2.53 µM): 0.953
relative viability (KN-93 + Crizotinib; first compound 8 µM): 0.859
relative viability (KN-93 + Alpelisib; first compound 0.08 µM): 1.06
relative viability (KN-93 + Alpelisib; first compound 0.253 µM): 1.17
relative viability (KN-93 + Alpelisib; first compound 2.53 µM): 1.1
relative viability (KN-93 + Alpelisib; first compound 8 µM): 0.95
relative viability (KN-93 + Dasatinib; first compound 0.08 µM): 0.354
relative viability (KN-93 + Dasatinib; first compound 0.253 µM): 0.343
relative viability (KN-93 + Dasatinib; first compound 2.53 µM): 0.305
relative viability (KN-93 + Dasatinib; first compound 8 µM): 0.225
relative viability (KN-93 + Olaparib; first compound 0.08 µM): 0.248
relative viability (KN-93 + Olaparib; first compound 0.253 µM): 0.264
relative viability (KN-93 + Olaparib; first compound 2.53 µM): 0.276
relative viability (KN-93 + Olaparib; first compound 8 µM): 0.255

NCI-H1944
relative viability (KN-93; 0.08 µM): 0.885
relative viability (KN-93; 0.253 µM): 0.885
relative viability (KN-93; 2.53 µM): 0.942
relative viability (KN-93; 8 µM): 0.803
relative viability (KN-93 + Crizotinib; first compound 0.08 µM): 1.24
relative viability (KN-93 + Crizotinib; first compound 0.253 µM): 1.24
relative viability (KN-93 + Crizotinib; first compound 2.53 µM): 1.18
relative viability (KN-93 + Crizotinib; first compound 8 µM): 0.953
relative viability (KN-93 + Alpelisib; first compound 0.08 µM): 0.832
relative viability (KN-93 + Alpelisib; first compound 0.253 µM): 0.761
relative viability (KN-93 + Alpelisib; first compound 2.53 µM): 0.931
relative viability (KN-93 + Alpelisib; first compound 8 µM): 0.754
relative viability (KN-93 + Dasatinib; first compound 0.08 µM): 0.235
relative viability (KN-93 + Dasatinib; first compound 0.253 µM): 0.22
relative viability (KN-93 + Dasatinib; first compound 2.53 µM): 0.213
relative viability (KN-93 + Dasatinib; first compound 8 µM): 0.154
relative viability (KN-93 + Olaparib; first compound 0.08 µM): 0.356
relative viability (KN-93 + Olaparib; first compound 0.253 µM): 0.378
relative viability (KN-93 + Olaparib; first compound 2.53 µM): 0.401
relative viability (KN-93 + Olaparib; first compound 8 µM): 0.334

NCI-H1975
relative viability (KN-93; 0.08 µM): 0.886
relative viability (KN-93; 0.253 µM): 0.942
relative viability (KN-93; 2.53 µM): 0.945
relative viability (KN-93; 8 µM): 0.706
relative viability (KN-93 + Crizotinib; first compound 0.08 µM): 0.721
relative viability (KN-93 + Crizotinib; first compound 0.253 µM): 1.2
relative viability (KN-93 + Crizotinib; first compound 2.53 µM): 0.875
relative viability (KN-93 + Crizotinib; first compound 8 µM): 0.581
relative viability (KN-93 + Alpelisib; first compound 0.08 µM): 0.607
relative viability (KN-93 + Alpelisib; first compound 0.253 µM): 0.717
relative viability (KN-93 + Alpelisib; first compound 2.53 µM): 0.556
relative viability (KN-93 + Alpelisib; first compound 8 µM): 0.284
relative viability (KN-93 + Dasatinib; first compound 0.08 µM): 0.339
relative viability (KN-93 + Dasatinib; first compound 0.253 µM): 0.336
relative viability (KN-93 + Dasatinib; first compound 2.53 µM): 0.351
relative viability (KN-93 + Dasatinib; first compound 8 µM): 0.224
relative viability (KN-93 + Olaparib; first compound 0.08 µM): 0.534
relative viability (KN-93 + Olaparib; first compound 0.253 µM): 0.839
relative viability (KN-93 + Olaparib; first compound 2.53 µM): 0.826
relative viability (KN-93 + Olaparib; first compound 8 µM): 0.456
